Assays:
[1] = system: MOLT-4; assay: Growth inhibition of human MOLT4 cells assessed as cell growth at 10 uM incubated for 48 hrs by sulforhodamine B assay relative to control; format: functional; conditions: MOLT-4, 48 h, read-out: Activity
[2] = system: HOP-62; assay: Growth inhibition of human HOP62 cells assessed as cell growth at 10 uM incubated for 48 hrs by sulforhodamine B assay relative to control; format: functional; conditions: HOP-62, 48 h, read-out: Activity
[3] = system: NCI-H226; assay: Growth inhibition of human NCI-H226 cells assessed as cell growth at 10 uM incubated for 48 hrs by sulforhodamine B assay relative to control; format: functional; conditions: NCI-H226, 48 h, read-out: Activity
[4] = system: NCI-H460; assay: Growth inhibition of human NCI-H460 cells assessed as cell growth at 10 uM incubated for 48 hrs by sulforhodamine B assay relative to control; format: functional; conditions: NCI-H460, 48 h, read-out: Activity
[5] = system: HCT-116; assay: Growth inhibition of human HCT116 cells assessed as cell growth at 10 uM incubated for 48 hrs by sulforhodamine B assay relative to control; format: functional; conditions: HCT-116, 48 h, read-out: Activity
[6] = system: LOX IMVI; assay: Growth inhibition of human LOXIMVI cells assessed as cell growth at 10 uM incubated for 48 hrs by sulforhodamine B assay relative to control; format: functional; conditions: read-out: Activity
[7] = system: MDA-MB-435; assay: Growth inhibition of human MDA-MB-435 cells assessed as cell growth at 10 uM incubated for 48 hrs by sulforhodamine B assay relative to control; format: functional; conditions: MDA-MB-435, 48 h, read-out: Activity
[8] = system: UACC-257; assay: Growth inhibition of human UACC257 cells assessed as cell growth at 10 uM incubated for 48 hrs by sulforhodamine B assay relative to control; format: functional; conditions: UACC-257, 48 h, read-out: Activity
[9] = system: UACC-62; assay: Growth inhibition of human UACC62 cells assessed as cell growth at 10 uM incubated for 48 hrs by sulforhodamine B assay relative to control; format: functional; conditions: UACC-62, 48 h, read-out: Activity
[10] = system: IGROV-1; assay: Growth inhibition of human IGROV1 cells assessed as cell growth at 10 uM incubated for 48 hrs by sulforhodamine B assay relative to control; format: functional; conditions: IGROV-1, 48 h, read-out: Activity
[11] = system: OVCAR-3; assay: Growth inhibition of human OVCAR3 cells assessed as cell growth at 10 uM incubated for 48 hrs by sulforhodamine B assay relative to control; format: functional; conditions: OVCAR-3, 48 h, read-out: Activity
[12] = system: NCI/ADR-RES; assay: Growth inhibition of human NCI/ADR-RES cells assessed as cell growth at 10 uM incubated for 48 hrs by sulforhodamine B assay relative to control; format: functional; conditions: read-out: Activity
[13] = system: SK-OV-3; assay: Growth inhibition of human SKOV3 cells assessed as cell growth at 10 uM incubated for 48 hrs by sulforhodamine B assay relative to control; format: functional; conditions: SK-OV-3, 48 h, read-out: Activity
[14] = system: 786-0; assay: Growth inhibition of human 786-0 cells assessed as cell growth at 10 uM incubated for 48 hrs by sulforhodamine B assay relative to control; format: functional; conditions: 786-0, 48 h, read-out: Activity
[15] = system: ACHN; assay: Growth inhibition of human ACHN cells assessed as cell growth at 10 uM incubated for 48 hrs by sulforhodamine B assay relative to control; format: functional; conditions: read-out: Activity
[16] = system: CAKI-1; assay: Growth inhibition of human Caki1 cells assessed as cell growth at 10 uM incubated for 48 hrs by sulforhodamine B assay relative to control; format: functional; conditions: CAKI-1, 48 h, read-out: Activity
[17] = system: RXF 393; assay: Growth inhibition of human RXF393 cells assessed as cell growth at 10 uM incubated for 48 hrs by sulforhodamine B assay relative to control; format: functional; conditions: RXF 393, 48 h, read-out: Activity
[18] = system: SN12C; assay: Growth inhibition of human SN12C cells assessed as cell growth at 10 uM incubated for 48 hrs by sulforhodamine B assay relative to control; format: functional; conditions: read-out: Activity
[19] = system: UO-31; assay: Growth inhibition of human UO31 cells assessed as cell growth at 10 uM incubated for 48 hrs by sulforhodamine B assay relative to control; format: functional; conditions: UO-31, 48 h, read-out: Activity
[20] = system: DU-145; assay: Growth inhibition of human DU145 cells assessed as cell growth at 10 uM incubated for 48 hrs by sulforhodamine B assay relative to control; format: functional; conditions: DU-145, 48 h, read-out: Activity
[21] = system: MDA-MB-468; assay: Growth inhibition of human MDA-MB-468 cells assessed as cell growth at 10 uM incubated for 48 hrs by sulforhodamine B assay relative to control; format: functional; conditions: MDA-MB-468, 48 h, read-out: Activity
[22] = system: NCI/ADR-RES; assay: Growth inhibition of human NCI/ADR-RES cells incubated for 48 hrs by sulforhodamine B assay; format: functional, cell-based
[23] = system: LOX IMVI; assay: Growth inhibition of human LOXIMVI cells assessed as cell growth at 0.01 uM incubated for 48 hrs by sulforhodamine B assay relative to control; format: functional; conditions: read-out: Activity
[24] = system: MOLT-4; assay: Growth inhibition of human MOLT4 cells assessed as cell growth at 0.1 uM incubated for 48 hrs by sulforhodamine B assay relative to control; format: functional; conditions: MOLT-4, 48 h, read-out: Activity
[25] = system: SF-295; assay: Growth inhibition of human SF295 cells assessed as cell growth at 0.1 uM incubated for 48 hrs by sulforhodamine B assay relative to control; format: functional; conditions: SF-295, 48 h, read-out: Activity
[26] = system: SK-MEL-5; assay: Growth inhibition of human SK-MEL-5 cells assessed as cell growth at 0.1 uM incubated for 48 hrs by sulforhodamine B assay relative to control; format: functional; conditions: SK-MEL-5, 48 h, read-out: Activity
[27] = system: PC-3; assay: Growth inhibition of human PC3 cells assessed as cell growth at 0.1 uM incubated for 48 hrs by sulforhodamine B assay relative to control; format: functional; conditions: PC-3, 48 h, read-out: Activity
[28] = system: SK-MEL-5; assay: Growth inhibition of human SK-MEL-5 cells assessed as cell growth at 1 uM incubated for 48 hrs by sulforhodamine B assay relative to control; format: functional; conditions: SK-MEL-5, 48 h, read-out: Activity
[29] = system: OVCAR-3; assay: Growth inhibition of human OVCAR3 cells assessed as cell growth at 1 uM incubated for 48 hrs by sulforhodamine B assay relative to control; format: functional; conditions: OVCAR-3, 48 h, read-out: Activity
[30] = system: OVCAR-5; assay: Growth inhibition of human OVCAR5 cells assessed as cell growth at 1 uM incubated for 48 hrs by sulforhodamine B assay relative to control; format: functional; conditions: OVCAR-5, 48 h, read-out: Activity
[31] = system: A549; assay: Growth inhibition of human A549/ATCC cells assessed as cell growth at 100 uM incubated for 48 hrs by sulforhodamine B assay relative to control; format: functional; conditions: A549, 48 h, read-out: Activity
[32] = system: HT-29; assay: Growth inhibition of human HT-29 cells assessed as cell growth at 100 uM incubated for 48 hrs by sulforhodamine B assay relative to control; format: functional; conditions: HT-29, 48 h, read-out: Activity
[33] = system: DU-145; assay: Growth inhibition of human DU145 cells assessed as cell growth at 100 uM incubated for 48 hrs by sulforhodamine B assay relative to control; format: functional; conditions: DU-145, 48 h, read-out: Activity

## O=C(Nc1cccc(-n2cc(-c3ccncc3)c(-c3cc(O)cc(Cl)c3)n2)c1)Nc1ccc(Cl)c(C(F)(F)F)c1
[1]
  growth at 10 µM: -18%
[2]
  growth at 10 µM: 8.99%
[3]
  growth at 10 µM: 41.2%
[4]
  growth at 10 µM: 3.75%
[5]
  growth at 10 µM: 6.95%
[6]
  growth at 10 µM: 2.08%
[7]
  growth at 10 µM: 9.57%
[8]
  growth at 10 µM: -40%
[9]
  growth at 10 µM: -1.44%
[10]
  growth at 10 µM: 30.6%
[11]
  growth at 10 µM: 1.88%
[12]
  growth at 10 µM: 41.5%
[13]
  growth at 10 µM: 63.1%
[14]
  growth at 10 µM: -29.8%
[15]
  growth at 10 µM: 21.3%
[16]
  growth at 10 µM: 29.1%
[17]
  growth at 10 µM: -49.5%
[18]
  growth at 10 µM: 34.6%
[19]
  growth at 10 µM: 18.5%
[20]
  growth at 10 µM: 18.7%
[21]
  growth at 10 µM: 5.22%
[22]; read-out: GI50
  GI50: 3.41 µM
[22]; read-out: LC50 (the source's name)
  CC50: > 100 µM
[22]; read-out: TGI
  TGI: 23.6 µM
[22]; read-out: pGI50 (converted)
  GI50: 3.39 µM
[22]; read-out: pLC50 (the source's name) (converted)
  CC50: > 100 µM
[22]; read-out: pTGI (converted)
  TGI: 23.4 µM
[23]
  growth at 0.01 µM: 90%
[24]
  growth at 0.1 µM: 92%
[25]
  growth at 0.1 µM: 93%
[26]
  growth at 0.1 µM: 98%
[27]
  growth at 0.1 µM: 98%
[28]
  growth at 1 µM: 90%
[29]
  growth at 1 µM: 91%
[30]
  growth at 1 µM: 109%
[31]
  growth at 100 µM: -45%
[32]
  growth at 100 µM: -88%
[33]
  growth at 100 µM: -68%

— ChEMBL document CHEMBL4308841, “Synthesis, in vitro antiproliferative activity, and kinase inhibitory effects of pyrazole-containing diarylureas and diarylamides” (Eur J Med Chem, 2018)
